The target of one assay is Tyk2 (Homo sapiens (Human), UniProt P29597). Put plainly: pSTAT4 Cell Assay (MSD, NK92 cells). In kind it is cell-based.
The next assay concerns the target JH2 domain of human Tyk2 (Homo sapiens (Human), UniProt P29597). Put plainly: JH2 Biochemical Assay (TR-FRET probe displacement). In kind it is binding. The method, then: The inhibitory potency of compounds of the disclosure against the kinase activity of recombinantly generated JH2 domain of human Tyk2 was evaluated in a plate-based assay using a TR-FRET assay platform. Briefly, 2 nM of recombinant JH2 domain [10×His-tagged TYK2 JH2 domain (amino acid 575-876)] was combined with 2 nM probe ((S)-6-amino-9-(2-carboxy-4-((1-(3-(8-methyl-5-(methylamino)-8H-imidazo[4,5-d]thiazolo[5,4-b]pyridin-2-yl)phenyl)ethyl)carbamoyl)phenyl)-3-iminio-5-sulfo-3H-xanthene-4-sulfonate), 0.1 nM Tb-labeled anti-His antibody, and compounds of disclosure for 60 minutes. Compounds are tested at either 10 μM or 1 μM top concentration, 10 points of 3-fold dilution. The TR-FRET signal inversely correlates to the amount of probe displaced by compounds and signal was calculated by taking the ratio of fluorescence at 520 nm and 495 nm. The data was normalized and the percent activity versus log concentration of compound was fitted with a 4-parameter logistic model to generate IC50 curves.
(TR-FRET usually uses a lanthanide donor and a delayed reading to cut background.)

[1] abbreviates: JH2 domain of human Tyk2, TR-FRET probe displacement.
The mark [2] stands for this setting: TR-FRET probe displacement, JH2 domain of human Tyk2.
Where [3] appears, read: TR-FRET probe displacement, JH2 domain.

Like-named read-outs stand apart in the source and are kept apart here.

Chain of JH2 domain of human Tyk2 (P29597 575-876): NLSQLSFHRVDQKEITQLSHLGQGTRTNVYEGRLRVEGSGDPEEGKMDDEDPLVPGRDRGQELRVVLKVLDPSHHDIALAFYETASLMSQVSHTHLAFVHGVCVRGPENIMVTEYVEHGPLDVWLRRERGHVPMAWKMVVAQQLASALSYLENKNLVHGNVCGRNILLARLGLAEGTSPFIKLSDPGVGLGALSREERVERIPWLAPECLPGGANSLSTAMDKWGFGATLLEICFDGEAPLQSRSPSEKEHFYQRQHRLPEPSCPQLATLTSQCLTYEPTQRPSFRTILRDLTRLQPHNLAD
Chain of Tyk2 (P29597 whole entry, the tested form may be a part): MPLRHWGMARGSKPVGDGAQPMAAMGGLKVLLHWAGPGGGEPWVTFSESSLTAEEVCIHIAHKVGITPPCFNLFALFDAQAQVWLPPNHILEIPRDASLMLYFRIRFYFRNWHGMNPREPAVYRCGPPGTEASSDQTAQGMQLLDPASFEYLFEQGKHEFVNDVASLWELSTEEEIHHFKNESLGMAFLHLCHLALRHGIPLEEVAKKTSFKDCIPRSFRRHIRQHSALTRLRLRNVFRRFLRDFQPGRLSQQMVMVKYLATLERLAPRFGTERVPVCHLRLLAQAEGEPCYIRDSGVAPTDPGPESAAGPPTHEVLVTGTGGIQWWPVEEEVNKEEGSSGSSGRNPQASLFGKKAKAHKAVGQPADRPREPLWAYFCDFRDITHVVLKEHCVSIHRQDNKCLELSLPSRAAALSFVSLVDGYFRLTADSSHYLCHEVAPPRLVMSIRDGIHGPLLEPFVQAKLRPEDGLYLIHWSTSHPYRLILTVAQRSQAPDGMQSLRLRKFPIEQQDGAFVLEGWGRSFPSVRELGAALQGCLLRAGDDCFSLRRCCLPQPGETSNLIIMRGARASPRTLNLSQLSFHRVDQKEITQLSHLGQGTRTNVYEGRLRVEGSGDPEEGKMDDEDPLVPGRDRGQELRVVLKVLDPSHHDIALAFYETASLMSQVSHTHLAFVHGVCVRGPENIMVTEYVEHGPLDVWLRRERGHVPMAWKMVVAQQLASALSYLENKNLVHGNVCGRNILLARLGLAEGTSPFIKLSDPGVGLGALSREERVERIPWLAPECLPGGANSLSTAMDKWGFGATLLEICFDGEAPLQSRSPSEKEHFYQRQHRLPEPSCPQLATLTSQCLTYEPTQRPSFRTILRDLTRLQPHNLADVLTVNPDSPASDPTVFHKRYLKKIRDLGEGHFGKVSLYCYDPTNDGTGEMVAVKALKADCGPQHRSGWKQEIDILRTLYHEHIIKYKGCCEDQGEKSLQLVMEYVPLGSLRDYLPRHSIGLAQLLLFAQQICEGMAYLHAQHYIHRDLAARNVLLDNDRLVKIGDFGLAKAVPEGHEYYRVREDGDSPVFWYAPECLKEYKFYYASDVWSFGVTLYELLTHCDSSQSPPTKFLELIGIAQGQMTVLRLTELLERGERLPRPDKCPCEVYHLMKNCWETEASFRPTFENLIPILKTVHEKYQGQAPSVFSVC

Regarding `CC(=O)Nc1cc(Nc2cc(C)nc(C(C)(F)F)n2)c(-c2cnc(COC(F)F)cn2)cn1` [Example 662, N-(4-((2-(1,1-difluoroethyl)-6-methylpyrimidin-4-yl)amino)-5-(5-((difluoromethoxy)methyl)pyrazin-2-yl)pyridin-2-yl)acetamide], the IC50 is 0.01 to 0.1 µM against Tyk2 (MSD) and at most 0.01 µM on JH2 domain of human Tyk2 (setting [1]).
For `CC(=O)Nc1cc(Nc2cc(C)nc(C(C)(F)F)n2)c(-c2ccc(C)nn2)cn1` [Example 219, N-(4-((2-(1,1-difluoroethyl)-6-methylpyrimidin-4-yl)amino)-5-(6-methylpyridazin-3-yl)pyridin-2-yl)acetamide], the IC50 against Tyk2 (MSD) and on JH2 domain of human Tyk2 (setting [2]) was at most 0.01 µM throughout.
Take `CCOc1cnc(NC(C)=O)cc1Nc1cc(Cl)nc(C(C)(F)F)n1` [Example 372, N-(4-((6-chloro-2-(1,1-difluoroethyl)pyrimidin-4-yl)amino)-5-ethoxypyridin-2-yl)acetamide]: the results for the IC50 against Tyk2 (MSD) and on JH2 domain of human Tyk2 (setting [1]) were 0.01 to 0.1 µM and at most 0.01 µM, respectively.
With `COCCOc1cnc(NC(C)=O)cc1Nc1nc(C)cc(C(C)(C)F)n1` [Example 441, N-(4-((4-(2-fluoropropan-2-yl)-6-methylpyrimidin-2-yl)amino)-5-(2-methoxyethoxy)pyridin-2-yl)acetamide], the concentration for half-maximal inhibition (IC50) at Tyk2 (MSD) is 0.1 to 1 µM; on JH2 domain of human Tyk2 (setting [1]), at most 0.01 µM.
For `CCc1cc(Nc2cc(NC(C)=O)ncc2-c2ccn(C)n2)nc(C(C)(F)F)n1` [Example 204, N-(4-((2-(1,1-difluoroethyl)-6-ethylpyrimidin-4-yl)amino)-5-(1-methyl-1H-pyrazol-3-yl)pyridin-2-yl)acetamide], the half-maximal inhibitory concentration (IC50) on Tyk2 (MSD) and on JH2 domain of human Tyk2 (setting [2]) was at most 0.01 µM each time.
For `CC(=O)Nc1cc(Nc2cc(C)nc(C(C)(F)F)n2)c(OCC(F)(F)F)cn1` [Example 23, N-(4-((2-(1,1-difluoroethyl)-6-methylpyrimidin-4-yl)amino)-5-(2,2,2-trifluoroethoxy)pyridin-2-yl)acetamide], the IC50 was 0.1 to 1 µM against Tyk2 (MSD) and at most 0.01 µM on JH2 domain of human Tyk2 (setting [2]).
In the case of `COc1cncc(Nc2cc(NC(C)=O)ncc2-c2ccc(F)cn2)n1` [Example 586, N-(5-fluorO4′-((6-methoxypyrazin-2-yl)amino)-[2,3′-bipyridin]-6′-yl)acetamide], the IC50 against Tyk2 (MSD) was 0.01 to 0.1 µM; on JH2 domain of human Tyk2 (setting [1]), at most 0.01 µM.
As for `COc1cc(Nc2ccnc(NC(C)=O)c2)nc(C(C)(F)F)n1` [Example 808, N-(4-((2-(1,1-difluoroethyl)-6-methoxypyrimidin-4-yl)amino)pyridin-2-yl)acetamide], the results for the IC50 at Tyk2 and on JH2 domain of human Tyk2 (setting [3]) were at least 1 µM and 0.01 to 0.1 µM, respectively.
For `CC(=O)Nc1cc(Nc2cc(C)nc(C(C)(F)F)n2)c(-c2ccn(C(C)C)n2)cn1` [Example 603, N-(4-((2-(1,1-difluoroethyl)-6-methylpyrimidin-4-yl)amino)-5-(1-isopropyl-1H-pyrazol-3-yl)pyridin-2-yl)acetamide], the IC50 against Tyk2 (MSD) and at JH2 domain of human Tyk2 (setting [1]) was at most 0.01 µM each time.
`CC(=O)Nc1cc(Nc2ccnc(C3CCOC3)n2)c(-c2ccn(C)n2)cn1` (stereo not drawn) [Example 556, N-(5-(1-methyl-1H-pyrazol-3-yl)-4-((2-(tetrahydrofuran-3-yl)pyrimidin-4-yl)amino)pyridin-2-yl)acetamide]: the IC50 was 0.01 to 0.1 µM against Tyk2 (MSD) and at most 0.01 µM at JH2 domain of human Tyk2 (setting [1]).
Regarding `CC(=O)Nc1cc(Nc2ccnc(C(C)(F)F)n2)c(-c2cnc(N3CCCC3)cn2)cn1` [Example 843, N-(4-((2-(1,1-difluoroethyl)pyrimidin-4-yl)amino)-5-(5-(pyrrolidin-1-yl)pyrazin-2-yl)pyridin-2-yl)acetamide], the IC50 at Tyk2 is 0.01 to 0.1 µM; on JH2 domain of human Tyk2 (setting [3]), at most 0.01 µM.
Consider `CC(=O)Nc1cc(Nc2ccnc(C(C)(F)F)n2)c(-c2cnc(C#N)cn2)cn1` [Example 850, N-(5-(5-cyanopyrazin-2-yl)-4-((2-(1,1-difluoroethyl)pyrimidin-4-yl)amino)pyridin-2-yl)acetamide], for which the IC50 against Tyk2 was 0.1 to 1 µM; on JH2 domain of human Tyk2 (setting [3]), at most 0.01 µM.
As to `CCOc1cnc(NC(=O)COC)cc1Nc1cc(C)nc(C(C)(F)F)n1` [Example 26, N-(4-((2-(1,1-difluoroethyl)-6-methylpyrimidin-4-yl)amino)-5-ethoxypyridin-2-yl)-2-methoxyacetamide], the IC50 against Tyk2 (MSD) is 0.01 to 0.1 µM; at JH2 domain of human Tyk2 (setting [2]), at most 0.01 µM.
In the case of `COc1ccc(-c2cnc(NC(C)=O)cc2Nc2cc(C)nc(C(C)(F)F)n2)nc1` [Example 599, N-(4′-((2-(1,1-difluoroethyl)-6-methylpyrimidin-4-yl)amino)-5-methoxy-[2,3′-bipyridin]-6′-yl)acetamide], the IC50 at Tyk2 (MSD) and on JH2 domain of human Tyk2 (setting [1]) was at most 0.01 µM throughout.
Regarding `CC(=O)Nc1cc(Nc2ccnc(C(C)(F)F)n2)c(-c2cnc(C3CC3)cn2)cn1` [Example 694, N-(5-(5-cyclopropylpyrazin-2-yl)-4-((2-(1,1-difluoroethyl)pyrimidin-4-yl)amino)pyridin-2-yl)acetamide], the values for the IC50 against Tyk2 (MSD) and at JH2 domain of human Tyk2 (setting [1]) were 0.01 to 0.1 µM and at most 0.01 µM, respectively.
For `COCCOc1cnc(NC(C)=O)cc1Nc1nccc(C(C)(F)F)n1` [Example 75, N-(4-((4-(1,1-difluoroethyl)pyrimidin-2-yl)amino)-5-(2-methoxyethoxy)pyridin-2-yl)acetamide], the IC50 against Tyk2 (MSD) was 0.1 to 1 µM; at JH2 domain of human Tyk2 (setting [2]), at most 0.01 µM.
`CC(=O)Nc1cc(Nc2cc(C)nc(C34COC(C)(C3)C4)n2)c(-c2ccn(C)n2)cn1` [Example 554, N-(5-(1-methyl-1H-pyrazol-3-yl)-4-((6-methyl-2-(1-methyl-2-oxabicyclo[2.1.1]hexan-4-yl)pyrimidin-4-yl)amino)pyridin-2-yl)acetamide]: the values for the IC50 against Tyk2 (MSD) and on JH2 domain of human Tyk2 (setting [1]) were at least 1 µM and 0.01 to 0.1 µM, respectively.
The like results for `CC(=O)Nc1cc(Nc2cc(C)nc(C(C)(F)F)n2)c(OC[C@H]2CCC(=O)N2)cn1` [Example 502, (R)-N-(4-((2-(1,1-difluoroethyl)-6-methylpyrimidin-4-yl)amino)-5-((5-oxopyrrolidin-2-yl)methoxy)pyridin-2-yl)acetamide] were, in that order, 0.1 to 1 µM and at most 0.01 µM.
In the case of `CC(=O)Nc1cc(Nc2cc(C)nc(C(C)(F)F)n2)c(OC2CC2)cn1` [Example 45, N-(5-cyclopropoxy-4-((2-(1,1-difluoroethyl)-6-methylpyrimidin-4-yl)amino)pyridin-2-yl)acetamide], the IC50 is 0.01 to 0.1 µM on Tyk2 (MSD) and at most 0.01 µM at JH2 domain of human Tyk2 (setting [2]).
As for `CC(=O)Nc1cc(Nc2cc(C)nc(C(C)(F)F)n2)c(OC2CCN(C)C2)cn1` (stereo not drawn) [Example 478, N-(4-((2-(1,1-difluoroethyl)-6-methylpyrimidin-4-yl)amino)-5-((1-methylpyrrolidin-3-yl)oxy)pyridin-2-yl)acetamide], the IC50 is 0.1 to 1 µM against Tyk2 (MSD) and at most 0.01 µM on JH2 domain of human Tyk2 (setting [1]).
Take `CC(=O)Nc1cc(Nc2ccnc(C(C)(F)F)n2)c(-c2cnc(N3CC4(COC4)C3)cn2)cn1` [Example 888, N-(5-(5-(2-oxa-6-azaspiro[3.3]heptan-6-yl)pyrazin-2-yl)-4-((2-(1,1-difluoroethyl)pyrimidin-4-yl)amino)pyridin-2-yl)acetamide]: the IC50 against Tyk2 was 0.1 to 1 µM; on JH2 domain of human Tyk2 (setting [3]), at most 0.01 µM.
`COc1ccc(-c2cnc(NC(C)=O)cc2Nc2cc(C(C)C)nc(C(C)(F)F)n2)nn1` [Example 832, N-(4-((2-(1,1-difluoroethyl)-6-isopropylpyrimidin-4-yl)amino)-5-(6-methoxypyridazin-3-yl)pyridin-2-yl)acetamide]: the IC50 at Tyk2 and at JH2 domain of human Tyk2 (setting [3]) was at most 0.01 µM each time.
As for `CCOc1cnc(NC(C)=O)cc1Nc1cc(-c2cnn(C(F)F)c2)nc(C(C)(F)F)n1` [Example 303, N-(4-((2-(1,1-difluoroethyl)-6-(1-(difluoromethyl)-1H-pyrazol-4-yl)pyrimidin-4-yl)amino)-5-ethoxypyridin-2-yl)acetamide], the IC50 against Tyk2 (MSD) was 0.01 to 0.1 µM; on JH2 domain of human Tyk2 (setting [2]) it was at most 0.01 µM.
Regarding `COc1cnc(NC(C)=O)cc1Nc1cc(-c2cnn(CCN(C)C)c2)nc(C(C)(F)F)n1` [Example 380, N-(4-((2-(1,1-difluoroethyl)-6-(1-(2-(dimethylamino)ethyl)-1H-pyrazol-4-yl)pyrimidin-4-yl)amino)-5-methoxypyridin-2-yl)acetamide], the IC50 on Tyk2 (MSD) is 0.01 to 0.1 µM; on JH2 domain of human Tyk2 (setting [1]), at most 0.01 µM.
Regarding `CC(=O)Nc1cc(Nc2cc(C)nc(C(C)(F)F)n2)c(-c2ccc(S(C)(=O)=O)cn2)cn1` [Example 543, N-(4′-((2-(1,1-difluoroethyl)-6-methylpyrimidin-4-yl)amino)-5-(methylsulfonyl)-[2,3′-bipyridin]-6′-yl)acetamide], the IC50 at Tyk2 (MSD) and on JH2 domain of human Tyk2 (setting [1]) was at most 0.01 µM throughout.
`CC(=O)Nc1cc(Nc2ccnc(C(C)(F)F)n2)c(-c2ccc(CN3C[C@H]4C[C@@H]3CO4)cn2)cn1` [Example 886, N-(5-(((1R,4R)-2-oxa-5-azabicyclo[2.2.1]heptan-5-yl)methyl)-4′-((2-(1,1-difluoroethyl)pyrimidin-4-yl)amino)-[2,3′-bipyridin]-6′-yl)acetamide]: the IC50 at Tyk2 and at JH2 domain of human Tyk2 (setting [3]) was at most 0.01 µM each time.
In the case of `COC1CCN(Cc2ccc(-c3cnc(NC(C)=O)cc3Nc3ccnc(C(C)(F)F)n3)nc2)C1` (stereo not drawn) [Example 881, N-(4′-((2-(1,1-difluoroethyl)pyrimidin-4-yl)amino)-5-((3-methoxypyrrolidin-1-yl)methyl)-[2,3′-bipyridin]-6′-yl)acetamide], the IC50 on Tyk2 and at JH2 domain of human Tyk2 (setting [3]) was at most 0.01 µM throughout.

The IC50 is the midpoint of a concentration-inhibition curve. Higher therefore signals weaker potency in that assay.

For the origin of these results see patent US20260028365A1 (BIOGEN MA INC., priority 2022, published 2026).
